Results as given in patent US5138069A (E. I. Du Pont de Nemours and Company, priority 1988, dated 1992).
Like-named read-outs stand apart in the source and are kept apart here.

What was measured:
pressor response to AII = experiment: Inhibition of the pressor response to AII in conscious dogs; assay type: in vivo
Procedure: (§1) The hypotensive effects of 2-butyl-4-chloro-1-[2'-(1H-tetrazol-5-yl)biphenyl-4-yl)methyl]-5-hydroxymethylimidazole sodium salt were compared before and after furosemide administration to conscious dogs. […] Plasma renin activity (PRA) in these animals was 1.5±0.5 ng AI/ml/hr. Four days later, furosemide was given to three of these dogs at 10 mg/kg im at 18 and 2 hours before the experiment and increased PRA to 19.9±7.2 ng AI/ml/hr. […] Thus a combined therapy of these two classes of drugs will be likely to increase the response rate to therapy among hypertensive patients.

conscious dogs = experiment: Hypotensive effects in conscious dogs before and after furosemide; assay type: in vivo
Procedure: as §1

AII receptor = experiment: Angiotensin II receptor binding (displacement of 3H-AII); conditions: read-out: Angiotensin II Receptor Binding IC50, rat adrenal cortical microsomes, 2 nM 3H-AII, 1 hour, room temperature
How it was run: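 The receptor source was rat adrenal cortical microsomes in Tris buffer, incubated with 2 nM ³H-AII plus or minus test compound for 1 h at room temperature. Bound and free ligand were separated by rapid filtration on glass-fibre filters. Filter-bound ³H-AII was counted by scintillation.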

Renal Hypertensive Rats = experiment: Antihypertensive effects in renal hypertensive rats; assay type: in vivo; conditions: Rattus norvegicus; for minimal effective dose at 3 mg/kg / minimal effective dose at 30 mg/kg: Table 26; for minimal effective dose at 30 mg/kg: oral
How it was run: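 Renal hypertensive rats (renin-driven AII elevation) dosed orally at 100 mg/kg and/or i.v. via jugular cannula at 10 mg/kg; a second set used 30 mg/kg oral and 3 mg/kg i.v. Arterial pressure recorded continuously via carotid cannula and compared with pretreatment levels.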

AII = conditions: cited from earlier work
[1] = test system: renal vasoconstrictor effect of NSAID; conditions: cited from earlier work
[2] = test system: Plasma renin activity (PRA); experiment: Plasma renin activity in conscious dogs; assay type: in vivo; conditions: three dogs, furosemide 10 mg/kg im at 18 and 2 hours before; PRA before 1.5±0.5
Procedure: as §1

Compound	IC50 (AII receptor; Table 26) [nM]	minimal effective dose at 3 mg/kg (Renal Hypertensive Rats; intravenous) [mg/kg]	minimal effective dose at 30 mg/kg (Renal Hypertensive Rats) [mg/kg]	also measured
CCCCc1nc(Cl)c(CO)n1Cc1ccc(-c2ccccc2-c2nnn[nH]2)cc1	–	–	–	inhibition of pressor response to AII, before furosemide (pressor response to AII; cumulative iv 0.3 to 3 mg/kg, AII 0.1 μg/kg iv, 10 min post dose): effective in inhibiting the pressor response to AII; inhibition of pressor response to AII, after furosemide (pressor response to AII; iv, after furosemide 10 mg/kg im): inhibited the pressor response to AII at the two higher doses; blood pressure, after furosemide (conscious dogs; conscious dogs, cumulative iv 0.3 to 3 mg/kg after furosemide 10 mg/kg im at 18 and 2 hours before): caused a significant decrease in blood pressure in a dose-dependent manner; blood pressure, before furosemide (conscious dogs; normotensive conscious dogs, cumulative iv 0.3 to 3 mg/kg, n=4): did not lower blood pressure
CCCCc1nc(Cl)c(C=NNS(=O)(=O)c2ccccc2)n1Cc1ccc(-c2ccccc2-c2nnn[nH]2)cc1 [Example 327, 2-n-Butyl-4-chloro-1-[(2'-(1H-tetrazol-5-yl)biphenyl-4-yl)methyl]-imidazole-5-carboxaldehyde, benzenesulfonylhydrazone]	660	> 3	> 30	–
CCCCc1nc(Cl)c(C=NNC2=NCCN2)n1Cc1ccc(-c2ccccc2-c2nnn[nH]2)cc1 [Example 327A]	290	< 3	< 30	–
CCCCc1nc(Cl)c(C=NNC2=NCCN2)n1Cc1cccc(-c2ccccc2-c2nnn[nH]2)c1 [Example 327D]	5200	> 3	> 30	–
CCCc1nc(C(=O)O)c(C(=O)O)n1Cc1ccc(-c2ccccc2C(=O)O)cc1 [Example 328]	6700	< 3	< 30	–
CCCc1nc(C(=O)O)c(C(=O)O)n1Cc1ccc(-c2ccccc2-c2nnn[nH]2)cc1 [Example 329]	76	< 3	< 30	–
CCCc1nc(C(=O)OC)c(C(=O)OC)n1Cc1ccc(-c2ccccc2-c2nnn[nH]2)cc1 [Example 333, 4,5-Dicarbomethoxy-2-n-propyl-1-[(2'-(1H-tetrazol-5-yl)biphenyl-4-yl)methyl]imidazole]	51	< 3	< 30	–
CCCc1nc(C(=O)OC)c(CO)n1Cc1ccc(-c2ccccc2-c2nnn[nH]2)cc1 [Example 334, 4-Carbomethoxy-5-hydroxymethyl-2-n-propyl-1-[(2'-(1H-tetrazol-5-yl)biphenyl)-methyl]imidazole]	15	< 3	< 30	–
CCCc1nc(C(=O)O)c(CO)n1Cc1ccc(-c2ccccc2-c2nnn[nH]2)cc1 [Example 335, 5-Hydroxymethyl-2-n-propyl-1-[(2'-(1H-tetrazol-5-yl)biphenyl)methyl]-imidazole-4-carboxylic acid]	260	< 3	< 30	–
CCCCc1nc(Cl)c(CO)n1Cc1ccc(-c2ccccc2-c2[nH]nnc2C#N)cc1 [Example 336]	280	> 3	> 30	–
CCCCc1nc(CO)c(Cl)n1Cc1ccc(-c2ccccc2-c2nn[nH]c2C#N)cc1 [Example 337, 2-n-Butyl-5-chloro-1-[(2'-(5-cyano-1,2,3-triazol-4-yl)biphenyl-4-yl)methyl]-4-hydroxymethylimidazole]	760	< 3	> 30	–
CCCCc1nc(Cl)c(CO)n1Cc1ccc(-c2ccccc2-c2nn[nH]c2C(=O)OC)cc1 [Example 338, 2-n-Butyl-4-chloro-1-[(2'-(5-carbomethoxy-1,2,3-triazol-4-yl)biphenyl-4-yl)methyl]-5-hydroxymethylimidazole]	260	> 3	> 30	–
CCCCc1nc(CO)c(Cl)n1Cc1ccc(-c2ccccc2-c2[nH]nnc2C(=O)OC)cc1 [Example 339, 2-n-Butyl-5-chloro-1-[(2'-(5-carbomethoxy-1,2,3-triazol-4-yl)biphenyl-4-yl)-methyl]-5-hydroxymethylimidazole]	1700	< 3	< 30	–
CCCCc1nc(Cl)c(CO)n1Cc1ccc(-c2ccccc2-c2n[nH]c(C(F)(F)F)n2)cc1 [Example 340, 2-n-Butyl-4-chloro-5-hydroxymethyl-1-[(2'-(5-trifluoromethyl-1,2,4-triazol-3-yl)biphenyl-4-yl)methyl]imidazole]	370	< 3	< 30	–
CCCCc1nc(Cl)c(CO)n1Cc1ccc(-c2c(C#N)cccc2-c2nnn[nH]2)cc1 [Example 343, 2-n-Butyl-4-chloro-1-[(2'-cyano-6'-(1H-tetrazol-5-yl)biphenyl-4-yl)methyl]-5-hydroxymethylimidazole]	510	< 3	> 30	–
CCCCc1nc(Cl)c(-c2nnn[nH]2)n1Cc1ccc(-c2ccccc2-c2nnn[nH]2)cc1 [Example 344, 2-n-Butyl-4-chloro-5-(1H-tetrazol-5-yl)-1-[(2'-(1H-tetrazol-5-yl)biphenyl-4-yl)methyl]-imidazole]	160	< 3	< 30	–
CCCCc1nc(Cl)c(-c2[nH]nnc2C(=O)O)n1Cc1ccc(-c2ccccc2-c2nnn[nH]2)cc1 [Example 345, 2-n-Butyl-5-(4-carboxy-1,2,3-triazol-5-yl)-4-chloro-1-[(2'-(1H-tetrazol-5-yl)biphenyl-4-yl)methyl]imidazole]	1100	< 3	–	–
CCCCc1nc(Cl)c(CN2CCN(c3ccccc3OC)CC2)n1Cc1ccc(-c2ccccc2C(=O)O)cc1 [Example 346, 2-n-Butyl-1-[(2'-carboxybiphenyl-4-yl)methyl]-4-chloro-5-[(1-(2-methoxyphenyl)piperazin-4-yl)methyl]imidazole]	–	–	–	IC50 (AII receptor; Table 25): 740 nM; minimal effective dose at 10 mg/kg (Renal Hypertensive Rats; Table 25, intravenous, 10 mg/kg or less): < 10 mg/kg
CCCCc1nc(Cl)c(C(=O)N2CCN(c3ccccc3OC)CC2)n1Cc1ccc(-c2ccccc2-c2nnn[nH]2)cc1 [Example 347, 2-n-Butyl-4-chloro-5-[4-(2-methoxyphenyl)piperazin-1-ylcarbonyl]-1-[(2'-(1H-tetrazol-5-yl)biphenyl-4-yl)methyl]imidazole]	200	< 3	< 30	–
CCCCc1nc(C(=O)N2CCN(c3ccccc3OC)CC2)c(Cl)n1Cc1ccc(-c2ccccc2-c2nnn[nH]2)cc1 [Example 348]	1300	< 3	> 30	–
CNCC(=O)N[C@@H](CCCN=C(N)N)C(=O)N[C@H](C(=O)N[C@@H](Cc1ccc(O)cc1)C(=O)N[C@H](C(=O)N[C@@H](Cc1cnc[nH]1)C(=O)N1CCC[C@H]1C(=O)N[C@@H](C)C(=O)O)C(C)C)C(C)C [Saralasin, [Sar^1, Ala^8] AII]	–	–	–	antagonism of the actions of AII (AII; Pals et al. 1971, pithed rats): one of the most potent competitive antagonists of the actions of AII; arterial pressure (AII; mammals and man, elevated pressure dependent on circulating AII): lower arterial pressure in mammals and man; oral efficacy (AII; oral doses): oral doses being ineffective; pressor effects (AII; when the pressure is not sustained by AII): generally elicits pressor effects when the pressure is not sustained by AII; effect on renal vasoconstrictor effect of indomethacin and meclofenamate ([1]; dogs): inhibit the renal vasoconstrictor effect of indomethacin and meclofenamate in dogs
C[C@H](CS)C(=O)N1CCC[C@H]1C(=O)O [captopril, Captopril]	–	–	–	effect on renal vasoconstrictor effect of indomethacin ([1]; dogs with non-hypotensive hemorrhage): reverse the renal vasoconstrictor effect of indomethacin in dogs
NS(=O)(=O)c1cc(C(=O)O)c(NCc2ccco2)cc1Cl [furosemide]	–	–	–	Plasma renin activity (PRA) after furosemide [2]: 19.9±7.2 ng AI/ml/hr
